Source: the supplement of paper PMC11451515

Experiments:
Conditions in all cases: 48 h
[1] = system: P12-Ichikawa; assay: AUC of viability dose-response curve (% viability x log10 dose units); higher = less sensitive
How it was run: (§1)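 Library compounds in DMSO were applied for 48 h at 37°C at 11 threefold doses (47 μM to 0.79 nM) to medium-adapted leukemia cells in 1536-well plates holding 500 or 1000 cells/well. Luminescence from CellTiter-Glo One was normalised plate by plate against DMSO and cell-free wells. Area under the curve came from trapezoidal integration of a log-logistic fit, after scaling curves that rose above full viability and discarding those that failed quality control. The fit had four parameters and used log10 doses.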

[2] = system: NOMO1; assay: as above
How it was run: as §1

[3] = system: P12-Ichikawa; assay: cell viability relative to DMSO control; higher = less cytotoxic
How it was run: (§2)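 Viability values are per-plate percentages of DMSO wells, with background from cell-free wells. Library compounds in DMSO were pin-dosed, in an 11-point threefold series from 47 μM to 0.79 nM, onto NOMO1 or SEM (500 cells/well) or P12-Ichikawa (1000 cells/well) leukemia cells in 1536-well plates (5 μl). Those cells had been adapted for at least four passages in each medium, and CellTiter-Glo One luminescence was read after 48 h at 37°C.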

[4] = system: SEM cells; assay: as above
How it was run: as §2

[5] = system: NOMO1; assay: as above
How it was run: as §2

[6] = system: SEM cells; assay: AUC of viability dose-response curve (% viability x log10 dose units); higher = less sensitive
How it was run: as §1

COc1cc(N[S+](=O)([O-])c2ccc(N)cc2)nc(OC)n1
AUC of viability dose-response curve
Conditions	HPLM + 10% dialyzed FBS	RPMI 5 mM glucose + 10% FBS	RPMI 5 mM glucose + 10% dialyzed FBS
[1]	462	470	466
[2]	431	476	458

cell viability [%]
Conditions	[3]	[4]	[5]
HPLM + 10% dialyzed FBS, 0.000781 µM	114	71.9	102
HPLM + 10% dialyzed FBS, 0.00234 µM	111	78.4	106
HPLM + 10% dialyzed FBS, 0.00702 µM	116	85.6	111
HPLM + 10% dialyzed FBS, 0.0211 µM	112	83	116
HPLM + 10% dialyzed FBS, 0.0632 µM	125	86.4	109
HPLM + 10% dialyzed FBS, 0.19 µM	115	85.5	92.5
HPLM + 10% dialyzed FBS, 0.569 µM	112	81.7	114
HPLM + 10% dialyzed FBS, 1.71 µM	109	82.6	112
HPLM + 10% dialyzed FBS, 5.12 µM	110	76.5	99.3
HPLM + 10% dialyzed FBS, 15.4 µM	110	74.6	132
HPLM + 10% dialyzed FBS, 46.1 µM	107	66.4	109
RPMI 5 mM glucose + 10% FBS, 0.000781 µM	102	76.1	107
RPMI 5 mM glucose + 10% FBS, 0.00234 µM	106	102	106
RPMI 5 mM glucose + 10% FBS, 0.00702 µM	109	90.6	116
RPMI 5 mM glucose + 10% FBS, 0.0211 µM	110	83.4	111
RPMI 5 mM glucose + 10% FBS, 0.0632 µM	107	102	124
RPMI 5 mM glucose + 10% FBS, 0.19 µM	110	108	111
RPMI 5 mM glucose + 10% FBS, 0.569 µM	110	108	112
RPMI 5 mM glucose + 10% FBS, 1.71 µM	110	96.9	103
RPMI 5 mM glucose + 10% FBS, 5.12 µM	105	84.5	96.3
RPMI 5 mM glucose + 10% FBS, 15.4 µM	95.8	111	111
RPMI 5 mM glucose + 10% FBS, 46.1 µM	103	106	120
RPMI 5 mM glucose + 10% dialyzed FBS, 0.000781 µM	112	92.8	105
RPMI 5 mM glucose + 10% dialyzed FBS, 0.00234 µM	108	91.3	91.9
RPMI 5 mM glucose + 10% dialyzed FBS, 0.00702 µM	114	99.7	104
RPMI 5 mM glucose + 10% dialyzed FBS, 0.0211 µM	106	98.8	103
RPMI 5 mM glucose + 10% dialyzed FBS, 0.0632 µM	117	118	102
RPMI 5 mM glucose + 10% dialyzed FBS, 0.19 µM	113	101	115
RPMI 5 mM glucose + 10% dialyzed FBS, 0.569 µM	117	92.7	110
RPMI 5 mM glucose + 10% dialyzed FBS, 1.71 µM	117	95.3	99.9
RPMI 5 mM glucose + 10% dialyzed FBS, 5.12 µM	104	98.9	94
RPMI 5 mM glucose + 10% dialyzed FBS, 15.4 µM	103	101	116
RPMI 5 mM glucose + 10% dialyzed FBS, 46.1 µM	101	101	111

CC[C@@]1(O)C[C@H](O[C@H]2C[C@H](N(C)C)[C@H](O[C@H]3C[C@H](O)[C@H](O[C@H]4CCC(=O)[C@H](C)O4)[C@H](C)O3)[C@H](C)O2)c2c(cc3c(c2O)C(=O)c2c(O)cccc2C3=O)[C@H]1C(=O)OC
AUC of viability dose-response curve
Conditions	[1]	[2]	[6]
HPLM + 10% dialyzed FBS	463	426	217
RPMI 5 mM glucose + 10% FBS	417	430	225
RPMI 5 mM glucose + 10% dialyzed FBS	425	410	200

cell viability [%]
Conditions	[3]	[4]	[5]
HPLM + 10% dialyzed FBS, 0.000781 µM	94.5	79.8	109
HPLM + 10% dialyzed FBS, 0.00234 µM	104	68.5	106
HPLM + 10% dialyzed FBS, 0.00702 µM	97	86.2	106
HPLM + 10% dialyzed FBS, 0.0211 µM	102	77.9	106
HPLM + 10% dialyzed FBS, 0.0632 µM	103	48.4	122
HPLM + 10% dialyzed FBS, 0.19 µM	106	50	101
HPLM + 10% dialyzed FBS, 0.569 µM	109	26.5	109
HPLM + 10% dialyzed FBS, 1.71 µM	99.9	11.4	82
HPLM + 10% dialyzed FBS, 5.12 µM	94.5	13.5	67
HPLM + 10% dialyzed FBS, 15.4 µM	85.5	24	78.5
HPLM + 10% dialyzed FBS, 46.1 µM	90.1	15.8	71.9
RPMI 5 mM glucose + 10% FBS, 0.000781 µM	94.7	81	95.7
RPMI 5 mM glucose + 10% FBS, 0.00234 µM	96.5	65.9	102
RPMI 5 mM glucose + 10% FBS, 0.00702 µM	96.8	85.2	95.6
RPMI 5 mM glucose + 10% FBS, 0.0211 µM	98.7	72.5	97.6
RPMI 5 mM glucose + 10% FBS, 0.0632 µM	102	46.2	106
RPMI 5 mM glucose + 10% FBS, 0.19 µM	99	54.4	93.8
RPMI 5 mM glucose + 10% FBS, 0.569 µM	97.2	32.7	95.6
RPMI 5 mM glucose + 10% FBS, 1.71 µM	73.2	18.1	64.2
RPMI 5 mM glucose + 10% FBS, 5.12 µM	75.7	23.2	76.6
RPMI 5 mM glucose + 10% FBS, 15.4 µM	63.9	20.2	75.8
RPMI 5 mM glucose + 10% FBS, 46.1 µM	53.5	19.5	85
RPMI 5 mM glucose + 10% dialyzed FBS, 0.000781 µM	95.5	85.5	91.5
RPMI 5 mM glucose + 10% dialyzed FBS, 0.00234 µM	91.1	48.6	84.7
RPMI 5 mM glucose + 10% dialyzed FBS, 0.00702 µM	90.8	83.7	94.4
RPMI 5 mM glucose + 10% dialyzed FBS, 0.0211 µM	93.5	66.7	98.1
RPMI 5 mM glucose + 10% dialyzed FBS, 0.0632 µM	94.9	46.2	102
RPMI 5 mM glucose + 10% dialyzed FBS, 0.19 µM	106	51.3	90.4
RPMI 5 mM glucose + 10% dialyzed FBS, 0.569 µM	98.7	26.2	93.9
RPMI 5 mM glucose + 10% dialyzed FBS, 1.71 µM	84.2	11.8	67.7
RPMI 5 mM glucose + 10% dialyzed FBS, 5.12 µM	78	12.2	71.6
RPMI 5 mM glucose + 10% dialyzed FBS, 15.4 µM	76.8	15.4	75.3
RPMI 5 mM glucose + 10% dialyzed FBS, 46.1 µM	63.3	12.9	72.1
